Test results as given in the NIST ThermoML archive (doi:10.1007/s10765-012-1185-1).
Numbers after ± are expanded uncertainties.

Settings: Gas

## [C-]#[O+] [carbon monoxide]
288.72 K, Mass density=0.52 kg/m3
  viscosity: 0.01732 ± 0.00012 mPa·s
288.91 K, Mass density=0.78 kg/m3
  viscosity: 0.01733 ± 0.00012 mPa·s
292.39 K, Mass density=0.52 kg/m3
  viscosity: 0.0175 ± 0.00012 mPa·s
296.53 K, Mass density=0.78 kg/m3
  viscosity: 0.0177 ± 0.00013 mPa·s
296.67 K, Mass density=0.78 kg/m3
  viscosity: 0.0177 ± 0.00013 mPa·s
296.74 K, Mass density=0.52 kg/m3
  viscosity: 0.01769 ± 0.00013 mPa·s
296.81 K, Mass density=0.52 kg/m3
  viscosity: 0.0177 ± 0.00013 mPa·s
297.19 K, Mass density=0.52 kg/m3
  viscosity: 0.01771 ± 0.00013 mPa·s
298.54 K, Mass density=0.52 kg/m3
  viscosity: 0.01778 ± 0.00013 mPa·s
298.58 K, Mass density=0.52 kg/m3
  viscosity: 0.01778 ± 0.00013 mPa·s
299.09 K, Mass density=0.52 kg/m3
  viscosity: 0.0178 ± 0.00013 mPa·s
299.27 K, Mass density=0.52 kg/m3
  viscosity: 0.01781 ± 0.00013 mPa·s
323.27 K, Mass density=0.78 kg/m3
  viscosity: 0.0189 ± 0.00013 mPa·s
323.95 K, Mass density=0.52 kg/m3
  viscosity: 0.01894 ± 0.00013 mPa·s
349.98 K, Mass density=0.78 kg/m3
  viscosity: 0.02007 ± 0.00014 mPa·s
350.09 K, Mass density=0.52 kg/m3
  viscosity: 0.02007 ± 0.00014 mPa·s
377.57 K, Mass density=0.78 kg/m3
  viscosity: 0.02123 ± 0.00015 mPa·s
377.81 K, Mass density=0.52 kg/m3
  viscosity: 0.02123 ± 0.00015 mPa·s
405.3 K, Mass density=0.78 kg/m3
  viscosity: 0.02235 ± 0.00015 mPa·s
405.55 K, Mass density=0.52 kg/m3
  viscosity: 0.02236 ± 0.00015 mPa·s
433.29 K, Mass density=0.78 kg/m3
  viscosity: 0.02345 ± 0.00016 mPa·s
433.45 K, Mass density=0.52 kg/m3
  viscosity: 0.02345 ± 0.00016 mPa·s
461.39 K, Mass density=0.78 kg/m3
  viscosity: 0.02452 ± 0.00016 mPa·s
461.45 K, Mass density=0.52 kg/m3
  viscosity: 0.02451 ± 0.00016 mPa·s
489.68 K, Mass density=0.78 kg/m3
  viscosity: 0.02558 ± 0.00017 mPa·s
489.81 K, Mass density=0.52 kg/m3
  viscosity: 0.02557 ± 0.00017 mPa·s
518.13 K, Mass density=0.78 kg/m3
  viscosity: 0.02659 ± 0.00018 mPa·s
518.44 K, Mass density=0.52 kg/m3
  viscosity: 0.0266 ± 0.00018 mPa·s
542.05 K, Mass density=0.52 kg/m3
  viscosity: 0.02744 ± 0.00018 mPa·s
542.09 K, Mass density=0.78 kg/m3
  viscosity: 0.02744 ± 0.00018 mPa·s
564.73 K, Mass density=0.78 kg/m3
  viscosity: 0.02822 ± 0.00019 mPa·s
593.37 K, Mass density=0.52 kg/m3
  viscosity: 0.02919 ± 0.00019 mPa·s
593.52 K, Mass density=0.78 kg/m3
  viscosity: 0.0292 ± 0.00019 mPa·s
622.5 K, Mass density=0.52 kg/m3
  viscosity: 0.03015 ± 0.0002 mPa·s
622.67 K, Mass density=0.78 kg/m3
  viscosity: 0.03016 ± 0.0002 mPa·s
651.51 K, Mass density=0.78 kg/m3
  viscosity: 0.0311 ± 0.0002 mPa·s
651.68 K, Mass density=0.52 kg/m3
  viscosity: 0.0311 ± 0.0002 mPa·s
680.94 K, Mass density=0.78 kg/m3
  viscosity: 0.03203 ± 0.00021 mPa·s
681.07 K, Mass density=0.52 kg/m3
  viscosity: 0.03203 ± 0.00021 mPa·s

## N#N [nitrogen]
291.55 K, Mass density=0.72 kg/m3
  viscosity: 0.01747 ± 0.00012 mPa·s
294.73 K, Mass density=0.72 kg/m3
  viscosity: 0.01762 ± 0.00013 mPa·s
296.88 K, Mass density=0.72 kg/m3
  viscosity: 0.01771 ± 0.00013 mPa·s
324 K, Mass density=0.72 kg/m3
  viscosity: 0.01894 ± 0.00013 mPa·s
350.42 K, Mass density=0.72 kg/m3
  viscosity: 0.02009 ± 0.00014 mPa·s
378.04 K, Mass density=0.72 kg/m3
  viscosity: 0.02125 ± 0.00015 mPa·s
405.75 K, Mass density=0.72 kg/m3
  viscosity: 0.02237 ± 0.00015 mPa·s
433.79 K, Mass density=0.72 kg/m3
  viscosity: 0.02347 ± 0.00016 mPa·s
461.81 K, Mass density=0.72 kg/m3
  viscosity: 0.02453 ± 0.00016 mPa·s
490.21 K, Mass density=0.72 kg/m3
  viscosity: 0.02559 ± 0.00017 mPa·s
518.59 K, Mass density=0.72 kg/m3
  viscosity: 0.02661 ± 0.00018 mPa·s
542.47 K, Mass density=0.72 kg/m3
  viscosity: 0.02747 ± 0.00018 mPa·s
565.16 K, Mass density=0.72 kg/m3
  viscosity: 0.02825 ± 0.00019 mPa·s
594.04 K, Mass density=0.72 kg/m3
  viscosity: 0.02922 ± 0.00019 mPa·s
623.22 K, Mass density=0.72 kg/m3
  viscosity: 0.0302 ± 0.0002 mPa·s
652.36 K, Mass density=0.72 kg/m3
  viscosity: 0.03114 ± 0.0002 mPa·s
681.99 K, Mass density=0.72 kg/m3
  viscosity: 0.03209 ± 0.00021 mPa·s
